Reference: patent publication USRE48097E1, “Cephem compounds, their production and use” (priority 2015, dated 2020)
Values after ≈ are worked out from the molar mass of the structure shown. Where two headings read alike, the source gives them in different places.

Assays:
E. cloacae 566 = experiment: MIC against E. cloacae 566; type: cell-based; settings: Table 2, E. cloacae 566, Caz R, IMP S
Text: (§1) Without limitation, the present cephem compounds alone, or in combination with one or more β-lactamase inhibitors, may provide improved antibacterial efficacy, particularly in antibiotic-resistant bacterial strains. It is believed that the present compounds may be structurally different from known compounds and, as a result, may be more basic in nature. It is an advantage that the present compounds may extend the spectrum of effective bacterial compounds, particularly against previously-resistant bacteria (e.g. ESKAPE organisms), and/or gram negative bacteria, without significant side effects. In a preferred embodiment, the present cephem compound may comprise reference compound ceftazidime, which may be used alone, or in combination with one or more β-lactamase inhibitors, such as NXL-104. As shown, the foregoing composition was tested for minimum inhibitory concentration (MIC, μg/mL) against bacteria listed in Tables 2-3.

C. freundii 15 = experiment: MIC against C. freundii 15; type: cell-based; settings: Table 2, C. freundii 15, Caz R, IMP S
Text: as §1

E. cloacae 2706 = experiment: MIC against E. cloacae 2706; type: cell-based; settings: Table 3, E. cloacae 2706, VIM-1, KPC-3
Procedure: (§2) As shown, the foregoing composition was tested for minimum inhibitory concentration (MIC, μg/mL) against bacteria listed in Tables 2-3.

S. pneumoniae 2389 = experiment: MIC against S. pneumoniae 2389; type: cell-based; settings: Table 2, S. pneumoniae 2389, Pen R
Text: as §1

E. cloacae 551 = experiment: MIC against E. cloacae 551; type: cell-based; settings: Table 2, E. cloacae 551, Caz R, IMP S
Text: as §1

K. pneumoniae 4105 = experiment: MIC against K. pneumoniae 4105; type: cell-based; settings: K. pneumoniae 4105, KPC-3, TEM-1, SHV-11
Procedure: as §2

P. aeruginosa 2573 = experiment: MIC against P. aeruginosa 2573; type: cell-based; settings: Table 2, P. aeruginosa 2573, OXA-10 (Class D)
Text: as §1

K. pneumoniae 4108 = experiment: MIC against K. pneumoniae 4108; type: cell-based; settings: K. pneumoniae 4108, KPC-3, TEM-166, SHV-12, SHV-141
Procedure: as §2

M. morganii 2409 = experiment: MIC against M. morganii 2409; type: cell-based; settings: Table 2, M. morganii 2409, High level cephase, β-Lactamase producing
Text: as §1

K. pneumoniae 4088 = experiment: MIC against K. pneumoniae 4088; type: cell-based; settings: Table 3, K. pneumoniae 4088, KPC-3
Procedure: as §2

S. pneumoniae 2407 = experiment: MIC against S. pneumoniae 2407; type: cell-based; settings: Table 2, S. pneumoniae 2407, Pen S
Text: as §1

E. cloacae 2704 = experiment: MIC against E. cloacae 2704; type: cell-based; settings: Table 2, E. cloacae 2704, P99
Text: as §1

E. cloacae596 = experiment: MIC against E. cloacae596; type: cell-based, E. cloacae; settings: Table 2, E. cloacae596, Caz R, IMP S
Text: as §1

E. cloacae 552 = experiment: MIC against E. cloacae 552; type: cell-based; settings: Table 2, E. cloacae 552, Caz S, IMP S
Text: as §1

S. aureus 3136 = experiment: MIC against S. aureus 3136; type: cell-based; settings: Table 2, S. aureus 3136, MSSA
Text: as §1

S. pneumoniae ATCC 6301 = experiment: MIC against S. pneumoniae ATCC 6301; type: cell-based; settings: Table 2, S. pneumoniae ATCC 6301, Pen S
Text: as §1

E. cloacae 2710 = experiment: MIC against E. cloacae 2710; type: cell-based; settings: Table 3, E. cloacae 2710, KPC-3, VIM-1
Procedure: as §2

E. coli 4098 = experiment: MIC against E. coli 4098; type: cell-based; settings: Table 2, E. coli 4098, CTX-M-15, TEM-1
Text: as §1

E. coli 2671 = experiment: MIC against E. coli 2671; type: cell-based; settings: Table 2, E. coli 2671, VIM-19
Text: as §1

K. pneumoniae 2712 = experiment: MIC against K. pneumoniae 2712; type: cell-based; settings: Table 3, K. pneumoniae 2712, KPC-3, VIM-1
Procedure: as §2

S. aureus 3147 = experiment: MIC against S. aureus 3147; type: cell-based; settings: Table 2, S. aureus 3147, MSSA
Text: as §1

E. coli 2666 = experiment: MIC against E. coli 2666; type: cell-based; settings: Table 3, E. coli 2666, KPC-2
Procedure: as §2

S. aureus 3132 = experiment: MIC against S. aureus 3132; type: cell-based; settings: Table 2, S. aureus 3132, MSSA
Text: as §1

[1] = Enterobacter cloacae, alone, read-out: MIC
[2] = Citrobacter freundii, alone, read-out: MIC
[3] = Streptococcus pneumoniae, alone, read-out: MIC
[4] = Klebsiella pneumoniae, 4105, Table 2, alone, read-out: MIC
[5] = Klebsiella pneumoniae, 4105, Table 3, alone, read-out: MIC
[6] = Pseudomonas aeruginosa, alone, read-out: MIC
[7] = Klebsiella pneumoniae, 4108, Table 2, alone, read-out: MIC
[8] = Klebsiella pneumoniae, 4108, Table 3, alone, read-out: MIC
[9] = Morganella morganii, alone, read-out: MIC
[10] = Klebsiella pneumoniae, alone, read-out: MIC
[11] = Staphylococcus aureus, alone, read-out: MIC
[12] = Streptococcus pneumoniae, ATCC6301, alone, read-out: MIC
[13] = Escherichia coli, alone, read-out: MIC
[14] = Table 2, in combination with NXL-104
[15] = Table 3, in combination with NXL-104

## CC(C)(O/N=C(\C(=O)N[C@@H]1C(=O)N2C(C(=O)[O-])=C(C[n+]3ccc4c(ccn4Cc4ccc(C(=N)N)cc4)c3)CS[C@H]12)c1csc(N)n1)C(=O)O [Ex-1, (6R,7R)-7-{[(2Z)-2-(2-Amino-1,3-thiazol-4-yl)-2-{[(2-carboxypropan-2-yl)oxy]imino}acetyl]-amino}-3-{[1-(4-carbamimidoylbenzyl)-1H-pyrrolo[3,2-c]pyridin-5-ium-5-yl]methyl}-8-oxo-5-thia-1-azabicyclo[4.2.0]oct-2-ene-2-carboxylate]
E. cloacae 566; [1]
  MIC: 4 µg/mL
C. freundii 15; [2]
  MIC: 16 µg/mL
E. cloacae 2706; [1]
  MIC: > 32 µg/mL
S. pneumoniae 2389; [3]
  MIC: 4 µg/mL
E. cloacae 551; [1]
  MIC: 32 µg/mL
K. pneumoniae 4105; [4]
  MIC: 16 µg/mL (≈ 22.3 µM)
K. pneumoniae 4105; [5]
  MIC: 32 µg/mL (≈ 44.6 µM)
P. aeruginosa 2573; [6]
  MIC: 4 µg/mL
K. pneumoniae 4108; [7]
  MIC: 4 µg/mL (≈ 5.57 µM)
K. pneumoniae 4108; [8]
  MIC: 32 µg/mL (≈ 44.6 µM)
M. morganii 2409; [9]
  MIC: 8 µg/mL
K. pneumoniae 4088; [10]
  MIC: > 32 µg/mL
S. pneumoniae 2407; [3]
  MIC: 0.12 µg/mL
E. cloacae 2704; [1]
  MIC: 16 µg/mL
E. cloacae596; [1]
  MIC: 4 µg/mL
E. cloacae 552; [1]
  MIC: 0.12 µg/mL
S. aureus 3136; [11]
  MIC: 2 µg/mL
S. pneumoniae ATCC 6301; [12]
  MIC: ≤ 0.06 µg/mL
E. cloacae 2710; [1]
  MIC: > 32 µg/mL
E. coli 4098; [13]
  MIC: 4 µg/mL
E. coli 2671; [13]
  MIC: 16 µg/mL
K. pneumoniae 2712; [10]
  MIC: > 32 µg/mL
S. aureus 3147; [11]
  MIC: 2 µg/mL
E. coli 2666; [13]
  MIC: 32 µg/mL (≈ 44.6 µM)

## CC(C)(O/N=C(\C(=O)N[C@@H]1C(=O)N2C(C(=O)[O-])=C(C[n+]3ccc4c(ccn4Cc4cc(C(=N)N)co4)c3)CS[C@H]12)c1csc(N)n1)C(=O)O [Example 6, (6R,7R)-7-{[(2Z)-2-(2-Amino-1,3-thiazol-4-yl)-2-{[(2-carboxypropan-2-yl)oxy]imino}acetyl]amino}-3-({1-[(4-carbamimidoylfuran-2-yl)methyl]-1H-pyrrolo[3,2-c]pyridin-5-ium-5-yl}methyl)-8-oxo-5-thia-1-azabicyclo[4.2.0]oct-2-ene-2-carboxylate]
E. cloacae 566; [1]
  MIC: 4 µg/mL
E. cloacae 566; in combination with NXL-104
  MIC: 0.50 µg/mL
C. freundii 15; [2]
  MIC: 8 µg/mL
C. freundii 15; in combination with NXL-104
  MIC: 0.50 µg/mL
E. cloacae 2706; [1]
  MIC: > 32 µg/mL
E. cloacae 2706; in combination with NXL-104
  MIC: 32 µg/mL
S. pneumoniae 2389; [3]
  MIC: 2 µg/mL
S. pneumoniae 2389; in combination with NXL-104
  MIC: 2.00 µg/mL
E. cloacae 551; [1]
  MIC: 16 µg/mL
E. cloacae 551; in combination with NXL-104
  MIC: 1.00 µg/mL
K. pneumoniae 4105; [4]
  MIC: 32 µg/mL (≈ 45.2 µM)
K. pneumoniae 4105; [5]
  MIC: 32 µg/mL (≈ 45.2 µM)
K. pneumoniae 4105; [14]
  MIC: 1.00 µg/mL
K. pneumoniae 4105; [15]
  MIC: 2 µg/mL
P. aeruginosa 2573; [6]
  MIC: 2 µg/mL
P. aeruginosa 2573; in combination with NXL-104
  MIC: 2.00 µg/mL
K. pneumoniae 4108; [7]
  MIC: 16 µg/mL (≈ 22.6 µM)
K. pneumoniae 4108; [8]
  MIC: 32 µg/mL (≈ 45.2 µM)
K. pneumoniae 4108; [14]
  MIC: 0.50 µg/mL
K. pneumoniae 4108; [15]
  MIC: 1 µg/mL
M. morganii 2409; [9]
  MIC: 16 µg/mL
M. morganii 2409; in combination with NXL-104
  MIC: 1.00 µg/mL
K. pneumoniae 4088; [10]
  MIC: > 32 µg/mL
K. pneumoniae 4088; in combination with NXL-104
  MIC: 2 µg/mL
S. aureus 3132; [11]
  MIC: 4 µg/mL
S. aureus 3132; in combination with NXL-104
  MIC: 4.00 µg/mL
S. pneumoniae 2407; [3]
  MIC: ≤ 0.06 µg/mL
S. pneumoniae 2407; in combination with NXL-104
  MIC: ≤0.06 µg/mL
E. cloacae 2704; [1]
  MIC: 32 µg/mL
E. cloacae 2704; in combination with NXL-104
  MIC: 1.00 µg/mL
E. cloacae596; [1]
  MIC: 8 µg/mL
E. cloacae596; in combination with NXL-104
  MIC: 0.50 µg/mL
E. cloacae 552; [1]
  MIC: 0.12 µg/mL
E. cloacae 552; in combination with NXL-104
  MIC: 0.25 µg/mL
S. aureus 3136; [11]
  MIC: 4 µg/mL
S. aureus 3136; in combination with NXL-104
  MIC: 4.00 µg/mL
S. pneumoniae ATCC 6301; [12]
  MIC: ≤ 0.06 µg/mL
S. pneumoniae ATCC 6301; in combination with NXL-104
  MIC: ≤0.06 µg/mL
E. cloacae 2710; [1]
  MIC: > 32 µg/mL
E. cloacae 2710; in combination with NXL-104
  MIC: >32 µg/mL
E. coli 4098; [13]
  MIC: 32 µg/mL
E. coli 4098; in combination with NXL-104
  MIC: 0.12 µg/mL
E. coli 2671; [13]
  MIC: 32 µg/mL
E. coli 2671; in combination with NXL-104
  MIC: 32.00 µg/mL
K. pneumoniae 2712; [10]
  MIC: > 32 µg/mL
K. pneumoniae 2712; in combination with NXL-104
  MIC: 4 µg/mL
S. aureus 3147; [11]
  MIC: 4 µg/mL
S. aureus 3147; in combination with NXL-104
  MIC: 4.00 µg/mL
E. coli 2666; [13]
  MIC: 16 µg/mL (≈ 22.6 µM)
E. coli 2666; in combination with NXL-104
  MIC: 1 µg/mL
